The source of these data is patent publication US20030097692A1, “Plants with imidazolinone-resistant ALS” (priority 2000, published 2003).

The test relates to Arabidopsis seedlings. As to the kind of experiment: Dose-response of imazethapyr spray on 7-day-old Arabidopsis seedlings (foliar damage). The test is classed as in vivo, Arabidopsis thaliana. The following applies: repeated dose-response experiments, spray application, scored for foliar damage at 16 days post-treatment. The procedure: EMS-mutagenized M2 generation Arabidopsis thaliana (cv. Col-0) seeds were obtained from Lehle Seeds, Round Rock, Texas under catalog number M2E02-02. Flats were seeded to provide approximately one million ems-mutagenized seeds. The seeded flats were then watered by sub-irrigation, covered with transparent plastic domes, and maintained at 4° C. and 70% relative humidity for 4 days in the dark. At the end of this period the growth chamber conditions were reset to 21° C., 70% relative humidity under a 16 hour photoperiod, with soil-surface light intensity adjusted to approximately 150 uEinsteins/m^2/s. The flats were maintained under these conditions for seven days prior to imazethapyr, an imidazolinone treatments. The plastic domes were removed 2 days before the treatments to acclimate the plants to ambient humidity.
Based on repeated dose-response experiments using 7-day-old Arabidopsis seedlings grown under the conditions described above, it was determined that the I100 for imazethapyr was approximately 0.035 lbs. active ingredient per acre (a.i./acre). EMS-mutagenized seedlings were screened at a rate equivalent to approximately twice the 1100 value, or 0.07 lbs. a.i./acre. […] Seedlings were then returned to the growth chamber, and scored for foliar damage at 16 days post-treatment.

SMILES strings stand for the structures.

With `CCc1cnc(C2=NC(C)(C(C)C)C(=O)N2)c(C(=O)O)c1` (stereo not shown) [imazethapyr, 2-[4,5-dihydro-4-methyl-4-(1-methylethyl)-5-oxo-1H-imidazol-2-yl]-5-ethyl-3-pyridinecarboxylic acid], the I100 result is listed as “approximately 0.035 lbs. active ingredient per acre”.
